Molecules are shown by their SMILES. Marks after values point to notes of the source that are not given here.

Test [1] deals with MUC5AC. The test can be described thus: Immunohistochemistry of MUC5AC glycoforms (45M1, CLH2) in resected PDA tissue, H-score and extracellular detection. The test is classed as in vivo, human. The note with it: neoadjuvant therapy group by chemotherapy. As for the experimental part: Immunohistochemistry. […] The assay methodology development, optimization, and validation mirrors any new clinical immunohistochemical assay development in the laboratory. […] Briefly, the assay is performed on automated Stainer's (Leica Bond or Dako) in the laboratory. Appropriate positive (e.g., normal stomach) and negative tissue (e.g. normal pancreas) controls are used to optimize and validate the assay. The best pretreatment and antibody detection systems are determined using the manufacturer's antibody datasheet, and titration of at least three antibody dilutions are performed. If there is no recommendation from the manufacturer, the antibody is tested by trying the different lab pretreatment and detection system methods in order to determine the best method. Antibody dilutions may need to be optimized, depending on the results of initial testing. A pathologist reviews the slides from the validation run to determine the optimal methodology. Assessment of MUC5AC immunohistochemical staining. The immunohistochemical-labelled whole tumor section slides is reviewed by a pathologist with expertise in pancreaticobiliary pathology. The slides are reviewed for the expression patterns (Cytoplasmic vs Membranous) and scored for the extent (% of tumor stain) and intensity of staining (Negative 0, mild 1+, moderate 2+ and strong +3). A semiquantitative approach of H-score is assigned to tumor samples for statistical analysis. […] Tumor with scores <10 are considered as negative for expression. […] One hundred resected PDA specimens and serum samples were collected. 43 patients had neoadjuvant therapy (NAT), and 57 had upfront surgery (UpS). […] The presence or absence of extracellular (EC) expression was also studied. […] NR vs. […] Five of them were heavily treated with systemic therapy. […] Serum samples for the patients were collected at different time points of the management. This allowed for studying the relationship between serum MUC5AC with the known pancreatic cancer tumor marker CA 19-9 and MUC5AC's role in predicting treatment response. […] PR vs. […] The CA 19-9 levels followed the same trend (nCR vs. PR vs. NR=129 vs. 452 vs. 958, p>0.05). […] This can explain larger tumors in these groups. […] It should be noted that CA 19-9 levels were very high but not statistically significant in lower MUC5AC groups. One key takeaway from this is that PFS is not only driven by the pathological response in NAT group. Clinically, this may translate into guiding the physicians about the timing of surgery while on systemic therapy. […] OR vs. NR, 2.64 vs. 0.9, p=0.05). • There were 17 patients within 8 weeks of surgery, 9 within 5 weeks, and 8 from 5-8 weeks. The mean MUC5AC was lower than the ones noted in the pretreatment/presurgery population (1.2 ng/mL). […] The pathological response noted on the resected sample in NAT-group reported from the scale of 1-3 based on the treatment response. For practical purposes, patients with extensive tumors with no evident tumor regression or 3 were designated as the no-response (NR) group. Patients with residual tumors with evidence of regression or 2 and near complete response or single cells or small group of cancer cells or 1 were considered as partial-response (PR) or near complete-response (nCR), respectively.

In test [2] the test system is pancreatic cell lines (PCLs). Briefly: Chemosensitivity of pancreatic cell lines by MUC5AC expression level. Format: cell-based. The text has this:
It was also shown that MUC5AC detected by CLH2 (immature) and 45M1 (mature) mabs are differently localized (Ho, J. J., et al., Secretion of MUC5AC mucin from pancreatic cancer cells in response to forskolin and VIP. Biochem Biophys Res Commun, 2002. 294(3): p. 680-6). NPC-1C-specific (immunogenic) MUC5AC has a distribution similar to mature MUC5AC. It can therefore be concluded that there are differences in chemosensitivities MUC5AC^negative MUC5AC^low to moderate and MUC5AC^high pancreatic cell lines (PCLs).
Thus, adding localization and other isoform data to the level of mature MUC5AC expression gives a better predictive signal in PDA patients.

Test [3] has as its system MUC5AC. Briefly: Serum MUC5AC by ELISA kit in PDA patients. The test is classed as in vivo, human. The note with it: recurrent group, adjuvant therapy. The text has this:
One hundred resected PDA specimens and serum samples were collected. 43 patients had neoadjuvant therapy (NAT), and 57 had upfront surgery (UpS). The cellular expression of MUC5AC was studied in the resected formalin-fixed paraffin-embedded tissue through immunohistochemistry using 45M1 and CLH2 antibodies. The expression levels in the tissue were estimated using H-score intensity (0-3)X % of tumor cells with expression with results ranging from 0-300. The presence or absence of extracellular (EC) expression was also studied. Below is a summary of some significant findings. • CLH2-MUC5AC was identified in the perinuclear region or cytoplasm, while 45M1-MUC5AC was identified in apical and EC regions. […] Human serum MUC5AC levels were analyzed using the Human MUC5AC ELISA Kit (Catalog number NBP2-76703, Novus Biologicals, Centennial, CO). 45M1 and CLH2 could not be detected in the serum samples, but the commercially available kits allowed detection and measuring of MUC5AC. […]
There was an analysis of patients with serum MUC5AC levels available post-NAT […] to understand if serum MuC5AC levels help predict treatment response. […] The correlation between tissue (45M1 and CLH2) and serum MUC5AC levels was analyzed as the former correlated with treatment response in NAT-group.
Background: An ELISA detects its analyte on a solid surface through an enzyme-linked reagent.

[4] abbreviates: compared with MUC5AC low to moderate PCLs.
Setting [5] is: compared with MUC5AC negative PCLs.

Take `O=c1[nH]cc(F)c(=O)[nH]1` [5FU, fluorouracil]: in the test on MUC5AC [1], the “45M1 H-score mean” value is on record as 130, the “45M1 H-score median (range)” value is 105 (0-270), the 45M1 detection rate is listed as 89% and the “CLH2 H-score mean” value is reported as 126. Further, in the test on MUC5AC [1], the “CLH2 H-score median (range)” value was 95 (0-270), the CLH2 detection rate is recorded as 89% and the EC-45M1 detection rate is 58%. The “chemosensitivity of MUC5AC high PCLs” value in test [2] (setting [4]) is “more sensitive”. Besides, the “chemosensitivity of MUC5AC high PCLs” value in test [2] (setting [5]) is given as “more sensitive”.
Take `N.N.[Cl][Pt][Cl]` [Cisplatin, cisplatin]: the “chemosensitivity of MUC5AC high PCLs” value in test [2] (setting [4]) and in test [2] (setting [5]) was “more sensitive” each time.
Consider `Nc1ccn([C@@H]2O[C@H](CO)[C@@H](O)C2(F)F)c(=O)n1` [Gem, gemcitabine], for which, in the test with MUC5AC [1], the “45M1 H-score mean” value was 116, the “45M1 H-score median (range)” value was 150 (10-210), the 45M1 detection rate worked out at 100% and the “CLH2 H-score mean” value is 150)/90. Moreover, in the test on MUC5AC [1], the “CLH2 H-score median (range)” value came to 120, the CLH2 detection rate came out at 100% and the EC-45M1 detection rate was 60%. The “Serum MUC5AC” value in the test with MUC5AC [3] (after chemotherapy) is reported as 5.3* ng/mL. In the test on MUC5AC [3] (before chemotherapy), the “Serum MUC5AC” value was found to be 1.1 ng/mL. The “chemosensitivity of MUC5AC high PCLs” value in test [2] (setting [4]) is “resistant”. The “chemosensitivity of MUC5AC high PCLs” value in test [2] (setting [5]) was “resistant”.
For `CCc1c2c(nc3ccc(OC(=O)N4CCC(N5CCCCC5)CC4)cc13)-c1cc3c(c(=O)n1C2)COC(=O)[C@]3(O)CC` [Irinotecan, irinotecan], in test [2] (setting [5]), the “chemosensitivity of MUC5AC high PCLs” value is given as “more sensitive”.
Regarding `O=C1[O][Pt]2([NH][C@@H]3CCCC[C@H]3[NH]2)[O]C1=O` [Oxaliplatin, oxaliplatin], the “chemosensitivity of MUC5AC high PCLs” value is reported as “more sensitive” in test [2] (setting [4]) and “resistant” in test [2] (setting [5]).

The values above are taken from patent US20260226552A1, “MUC5AC IN PANCREATIC DUCTAL ADENOCARCINOMA” (Ohio State Innovation Foundation, priority 2023, published 2026).
